{"source": "patent US20120034613A1", "about": "“Apparatus and Method for Testing Relationships Between Gene Expression and Physical Appearance of Skin” (NSE Products, Inc., priority 2010, published 2012)", "system": "EpidermFT™ Skin Model (EFT-400) full thickness skin cultures", "test": "Affymetrix GeneChip HG U133 Plus 2.0 microarray global gene expression, agent-exposed vs untreated skin cultures", "assay_type": "cell-based, human", "settings": "0.5%, 24 hr"}
{"compound": "OCc1ccccc1O[C@@H]1O[C@H](CO)[C@@H](O)[C@H](O)[C@H]1O", "note": "[Salicin, 2-(Hydroxymethyl)phenyl β-D-glucospyranoside]", "values": [{"measurement": "Direction CYR61", "setting": "probe 210764_s_at", "value": "up"}, {"measurement": "Fold change CYR61", "setting": "probe 210764_s_at", "value": 2.692}, {"measurement": "Direction PLAUR", "setting": "probe 210845_s_at", "value": "up"}, {"measurement": "Fold change PLAUR", "setting": "probe 210845_s_at", "value": 2.249}, {"measurement": "Direction HGF", "setting": "probe 210998_s_at", "value": "up"}, {"measurement": "Fold change HGF", "setting": "probe 210998_s_at", "value": 4.35}, {"measurement": "Direction SERPINB4", "setting": "probe 211906_s_at", "value": "down"}, {"measurement": "Fold change SERPINB4", "setting": "probe 211906_s_at", "value": 5.613}, {"measurement": "Direction CAT", "setting": "probe 211922_s_at", "value": "down"}, {"measurement": "Fold change CAT", "setting": "probe 211922_s_at", "value": 2.095}, {"measurement": "Direction IGFBP5", "setting": "probe 211958_at", "value": "up"}, {"measurement": "Fold change IGFBP5", "setting": "probe 211958_at", "value": 2.712}, {"measurement": "Direction COL4A1", "setting": "probe 211981_at", "value": "up"}, {"measurement": "Fold change COL4A1", "setting": "probe 211981_at", "value": 2.121}, {"measurement": "Direction RHOB", "setting": "probe 212099_at", "value": "up"}, {"measurement": "Fold change RHOB", "setting": "probe 212099_at", "value": 3.764}, {"measurement": "Direction SGPL1", "setting": "probe 212321_at", "value": "down"}, {"measurement": "Fold change SGPL1", "setting": "probe 212321_at", "value": 2.406}, {"measurement": "Direction SULF1", "setting": "probe 212353_at", "value": "up"}, {"measurement": "Fold change SULF1", "setting": "probe 212353_at", "value": 4.424}, {"measurement": "Direction LCN2", "setting": "probe 212531_at", "value": "down"}, {"measurement": "Fold change LCN2", "setting": "probe 212531_at", "value": 12.01}, {"measurement": "Direction PRKCA", "setting": "probe 213093_at", "value": "up"}, {"measurement": "Fold change PRKCA", "setting": "probe 213093_at", "value": 2.125}, {"measurement": "Direction STARD13", "setting": "probe 213103_at", "value": "up"}, {"measurement": "Fold change STARD13", "setting": "probe 213103_at", "value": 2.844}, {"measurement": "Direction HSPA6", "setting": "probe 213418_at", "value": "up"}, {"measurement": "Fold change HSPA6", "setting": "probe 213418_at", "value": 14.24}, {"measurement": "Direction MFAP5", "setting": "probe 213764_s_at", "value": "down"}, {"measurement": "Fold change MFAP5", "setting": "probe 213764_s_at", "value": 2.112}, {"measurement": "Direction STARD5", "setting": "probe 213820_s_at", "value": "down"}, {"measurement": "Fold change STARD5", "setting": "probe 213820_s_at", "value": 3.436}, {"measurement": "Direction SST", "setting": "probe 213921_at", "value": "up"}, {"measurement": "Fold change SST", "setting": "probe 213921_at", "value": 4.356}, {"measurement": "Direction PTGER3", "setting": "probe 213933_at", "value": "down"}, {"measurement": "Fold change PTGER3", "setting": "probe 213933_at", "value": 13.58}, {"measurement": "Direction COL4A6", "setting": "probe 213992_at", "value": "down"}, {"measurement": "Fold change COL4A6", "setting": "probe 213992_at", "value": 4.8}, {"measurement": "Direction S100A8", "setting": "probe 214370_at", "value": "up"}, {"measurement": "Fold change S100A8", "setting": "probe 214370_at", "value": 2.98}, {"measurement": "Direction ELL2", "setting": "probe 214446_at", "value": "up"}, {"measurement": "Fold change ELL2", "setting": "probe 214446_at", "value": 2.557}, {"measurement": "Direction FN1", "setting": "probe 214702_at", "value": "up"}, {"measurement": "Fold change FN1", "setting": "probe 214702_at", "value": 2.71}, {"measurement": "Direction ADAMTS3", "setting": "probe 214913_at", "value": "up"}, {"measurement": "Fold change ADAMTS3", "setting": "probe 214913_at", "value": 2.145}, {"measurement": "Direction SOD2", "setting": "probe 215078_at", "value": "up"}, {"measurement": "Fold change SOD2", "setting": "probe 215078_at", "value": 5.712}, {"measurement": "Direction KLK10", "setting": "probe 215808_at", "value": "down"}, {"measurement": "Fold change KLK10", "setting": "probe 215808_at", "value": 4.673}, {"measurement": "Direction FNDC3A", "setting": "probe 215910_s_at", "value": "up"}, {"measurement": "Fold change FNDC3A", "setting": "probe 215910_s_at", "value": 3.663}, {"measurement": "Direction TNC", "setting": "probe 216005_at", "value": "up"}, {"measurement": "Fold change TNC", "setting": "probe 216005_at", "value": 2.719}, {"measurement": "Direction MAP3K4", "setting": "probe 216199_s_at", "value": "up"}, {"measurement": "Fold change MAP3K4", "setting": "probe 216199_s_at", "value": 2.654}, {"measurement": "Direction NR4A2", "setting": "probe 216248_s_at", "value": "up"}, {"measurement": "Fold change NR4A2", "setting": "probe 216248_s_at", "value": 7.592}, {"measurement": "Direction LTB4R", "setting": "probe 216388_s_at", "value": "down"}, {"measurement": "Fold change LTB4R", "setting": "probe 216388_s_at", "value": 2.456}, {"measurement": "Direction CCL2", "setting": "probe 216598_s_at", "value": "up"}, {"measurement": "Fold change CCL2", "setting": "probe 216598_s_at", "value": 5.407}, {"measurement": "Direction KLK1", "setting": "probe 216699_s_at", "value": "down"}, {"measurement": "Fold change KLK1", "setting": "probe 216699_s_at", "value": 2.169}, {"measurement": "Direction NR4A3", "setting": "probe 216979_at", "value": "up"}, {"measurement": "Fold change NR4A3", "setting": "probe 216979_at", "value": 7.204}, {"measurement": "Direction NAMPT", "setting": "probe 217738_at", "value": "up"}, {"measurement": "Fold change NAMPT", "setting": "probe 217738_at", "value": 2.668}, {"measurement": "Direction TSPAN13", "setting": "probe 217979_at", "value": "down"}, {"measurement": "Fold change TSPAN13", "setting": "probe 217979_at", "value": 2.401}, {"measurement": "Direction PHLDA1", "setting": "probe 217997_at", "value": "up"}, {"measurement": "Fold change PHLDA1", "setting": "probe 217997_at", "value": 3.409}, {"measurement": "Direction ZC3H12A", "setting": "probe 218810_at", "value": "up"}, {"measurement": "Fold change ZC3H12A", "setting": "probe 218810_at", "value": 2.117}, {"measurement": "Direction LASS4", "setting": "probe 218922_s_at", "value": "down"}, {"measurement": "Fold change LASS4", "setting": "probe 218922_s_at", "value": 3.028}, {"measurement": "Direction KRT23", "setting": "probe 218963_s_at", "value": "down"}, {"measurement": "Fold change KRT23", "setting": "probe 218963_s_at", "value": 10.94}, {"measurement": "Direction IL20RA", "setting": "probe 219115_s_at", "value": "down"}, {"measurement": "Fold change IL20RA", "setting": "probe 219115_s_at", "value": 12.07}, {"measurement": "Direction HSPBAP1", "setting": "probe 219284_at", "value": "up"}, {"measurement": "Fold change HSPBAP1", "setting": "probe 219284_at", "value": 2.08}, {"measurement": "Direction MREG", "setting": "probe 219648_at", "value": "down"}, {"measurement": "Fold change MREG", "setting": "probe 219648_at", "value": 2.887}, {"measurement": "Direction SMPD3", "setting": "probe 219695_at", "value": "down"}, {"measurement": "Fold change SMPD3", "setting": "probe 219695_at", "value": 13.66}, {"measurement": "Direction IL23A", "setting": "probe 220054_at", "value": "up"}, {"measurement": "Fold change IL23A", "setting": "probe 220054_at", "value": 2.967}, {"measurement": "Direction IL22RA1", "setting": "probe 220056_at", "value": "down"}, {"measurement": "Fold change IL22RA1", "setting": "probe 220056_at", "value": 2.023}, {"measurement": "Direction HYAL4", "setting": "probe 220249_at", "value": "down"}, {"measurement": "Fold change HYAL4", "setting": "probe 220249_at", "value": 3.117}, {"measurement": "Direction CALML5", "setting": "probe 220414_at", "value": "down"}, {"measurement": "Fold change CALML5", "setting": "probe 220414_at", "value": 8.749}, {"measurement": "Direction PSORS1C2", "setting": "probe 220635_at", "value": "down"}, {"measurement": "Fold change PSORS1C2", "setting": "probe 220635_at", "value": 19.08}, {"measurement": "Direction IL19", "setting": "probe 220745_at", "value": "up"}, {"measurement": "Fold change IL19", "setting": "probe 220745_at", "value": 2.278}, {"measurement": "Direction IL1F7", "setting": "probe 221470_s_at", "value": "down"}, {"measurement": "Fold change IL1F7", "setting": "probe 221470_s_at", "value": 100.5}, {"measurement": "Direction GDF15", "setting": "probe 221577_x_at", "value": "up"}, {"measurement": "Fold change GDF15", "setting": "probe 221577_x_at", "value": 5.573}, {"measurement": "Direction HSPB8", "setting": "probe 221667_s_at", "value": "down"}, {"measurement": "Fold change HSPB8", "setting": "probe 221667_s_at", "value": 4.659}, {"measurement": "Direction HMGCS1", "setting": "probe 221750_at", "value": "down"}, {"measurement": "Fold change HMGCS1", "setting": "probe 221750_at", "value": 2.406}, {"measurement": "Direction DNAJC10", "setting": "probe 221782_at", "value": "up"}, {"measurement": "Fold change DNAJC10", "setting": "probe 221782_at", "value": 2.553}, {"measurement": "Direction KLF4", "setting": "probe 221841_s_at", "value": "down"}, {"measurement": "Fold change KLF4", "setting": "probe 221841_s_at", "value": 2.468}, {"measurement": "Direction CLDN1", "setting": "probe 222549_at", "value": "down"}, {"measurement": "Fold change CLDN1", "setting": "probe 222549_at", "value": 7.758}, {"measurement": "Direction HPSE", "setting": "probe 222881_at", "value": "down"}, {"measurement": "Fold change HPSE", "setting": "probe 222881_at", "value": 4.194}]}
